Where a name gives a salt, the structure may show the parent alone.
Experiments:
[1] = Pharmacokinetic evaluation in Beagles; format: in vivo
Procedure: In this study, male Beagles were selected as test animals, and LC/MS/MS method was used to quantify plasma concentrations of the test compound intravenously injected or intragastrically administered to Beagles at different time points, so as to evaluate the pharmacokinetic profile of the test drug in Beagles.
• Beagles (male, 9 to 11 kg, Jiangsu Yadong Institute of Experimental Animals Co., Ltd.).
A clarified solution or suspension of the test compound was injected into Beagles (feeding) via the tail vein (vehicle: 5% DMSO/10% Solutol/85% H2O), or intragastrically administered into Beagles (feeding). For intravenous injection, 1 mL of blood was collected from the forelimb vein at 0 h (pre-administration) and 0.083 h, 0.25 h, 0.5 h, 1 h, 2 h, 4 h, 6 h, 8 h, and 24 h after administration, and anticoagulated with EDTA-2K. The mixture was thoroughly vortexed and mixed, and centrifuged at 6000 g for 3 minutes at 2 to 8° C. For oral administration, 1 mL of blood was collected from the forelimb vein at 0 h (pre-administration) and 0.083 h, 0.25 h, 0.5 h, 1 h, 2 h, 4 h, 6 h, 8 h, and 24 h after administration, and anticoagulated with EDTA-2K. The mixture was thoroughly vortexed and mixed, and centrifuged at 6000 g for 3 minutes at 2 to 8° C. Plasma concentrations were determined by LC-MS/MS method, and relevant pharmacokinetic parameters were calculated using Phoenix WinNonlin 8.2.0 pharmacokinetic software with non-compartmental model linear-log trapezoidal method.

IRAK4 = molecular target: T1, IRAK4 (Homo sapiens, UniProt Q9NWZ3); assay: Target protein degradation effect in K562 IRAK4-HiBiT cells (Nano-Glo HiBiT); format: cell-based; conditions: incubated 16 to 18 hours
T1 construct: expressed in transfected cells; host or cells: K562 IRAK4-HiBiT cells
T1 sequence (Q9NWZ3 1-460): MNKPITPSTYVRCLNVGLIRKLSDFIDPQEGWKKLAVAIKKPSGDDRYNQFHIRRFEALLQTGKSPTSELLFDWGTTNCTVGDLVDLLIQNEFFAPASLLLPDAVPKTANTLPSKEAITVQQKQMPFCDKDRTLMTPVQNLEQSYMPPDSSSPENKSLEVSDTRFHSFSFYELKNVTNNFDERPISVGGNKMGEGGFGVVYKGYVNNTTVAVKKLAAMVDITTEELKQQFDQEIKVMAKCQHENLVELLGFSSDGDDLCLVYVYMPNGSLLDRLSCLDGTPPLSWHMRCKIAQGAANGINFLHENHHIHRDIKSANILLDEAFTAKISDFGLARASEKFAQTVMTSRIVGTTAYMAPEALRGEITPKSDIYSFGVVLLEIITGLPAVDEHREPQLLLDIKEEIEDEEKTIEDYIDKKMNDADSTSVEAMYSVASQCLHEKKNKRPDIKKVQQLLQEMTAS
Procedure: Experimental purpose: In this experiment, the degradation effect of the test compound on the target protein IRAK4 in K562 IRAK4-HiBiT cells was detected.
• Cells: K562 IRAK4-HiBiT cells • Culture media: RPMI 1640+10% FBS+2 mM GlutaMax+1 mM sodium pyruvate+penicillin/streptomycin • Positive control: 1000 nM; negative control: 0.1% DMSO
• (1). The compound to be tested in powder form was dissolved in DMSO to 10 mM as a storage concentration, and 9 μL of the 10 mM compound to be tested was manually pipetted to column 1 and column 13 of an LDV plate using a pipette; • (2). 6 μL of DMSO was added to columns 2 to 12 and 14 to 24 using Multidrop Combi; [0688](3). the compound to be tested was 3-fold diluted (3 μL+6 μL) from columns 1 to 11 and 13 to 23 using Bravo; • (4). 25 nL of compound solution (columns 1 to 24 of the LDV plate) was transferred to an assay plate using Echo according to the plate layout; • (5). 25 nL of 1 mM positive control solution was transferred to the assay plate as a 100% degradation control (i.e., LC, HPE) and 25 nL of DMSO was transferred to the assay plate as a 0% control (i.e., HC, ZPE) using Echo.
• (1). The cell culture medium was discarded, and the cells were washed once with DPBS, digested with trypsin, and counted to prepare a cell suspension of […]; • (2). 25 µL/well of cell suspension was added to the assay plate containing the compound to be tested using Multidrop Combi at medium speed; • (3). the assay plate containing cells was returned to an incubator with 5% CO2 at 37° C. and incubated for 16 to 18 hours.
• (1). 25 µL/well of assay reagent (NanoGlo lysis buffer+substrate+LgBit protein) was added to the assay plate using Multidrop Combi at high speed, and the plate was shaken for 10 minutes; • (2). the plate was centrifuged at 2000 rpm for 1 minute to remove air bubbles; • (3). the plate was read on Envision using US Luminescence detection method.
The inhibition rate (IR) of the test compound was calculated using the following formula: IR (%)=(RLU vehicle control−RLU compound)/(RLU vehicle control−RLU positive control)×100%, and the vehicle control is the blank control. The inhibition rates of compounds at different concentrations were calculated in Excel, and then XLFit software was used to plot inhibition curves and calculate relevant parameters, including minimum inhibition rate, maximum inhibition rate, and DC50.

[2] = Intragastric administration (3 mg/kg)

With `O=C1CCC(c2noc3c(NC(=O)CN4CCN(C[C@H]5CC[C@H](n6cc(NC(=O)c7cnn8ccc(N9C[C@H]%10C[C@@H]9CO%10)nc78)c(C(F)F)n6)CC5)CC4)cccc23)C(=O)N1` (stereo partly shown) [Hydrochloride of WX015] the “Area under the drug-time curve (0-inf)” value [1, 2] was 1.13 µM·h, the Peak concentration [1, 2] was 0.12 µM and the “Time to peak concentration” value [1, 2] was 4.67 h. The “Area under the drug-time curve (0-inf)” value ([1]; Intravenous injection (0.5 mg/kg)) was 0.27 µM·h, the clearance ([1]; male, beagle, dog, plasma, Intravenous injection (0.5 mg/kg)) was 37.5 mL/min/kg and the Vd ([1]; male, beagle, dog, plasma, Intravenous injection (0.5 mg/kg), read-out: Apparent volume of distribution) was 8.44 L/kg. The half-life ([1]; male, beagle, dog, plasma, Intravenous injection (0.5 mg/kg), read-out: Elimination half-life (converted)) was 2.93 h, the bioavailability ([1]; male, beagle, dog, plasma, oral, IV 0.5 mg/kg, intragastric 3 mg/kg, read-out: Bioavailability F) was 70.3% and the DC50 (IRAK4) was 4.12 nM. The Maximum inhibition rate (IRAK4) was 106.70%.

Reference: patent US20250127905A1, “GLUTARIMIDE COMPOUND AND USE THEREOF” (MEDSHINE DISCOVERY INC., priority 2021, published 2025)
